Where two headings read alike, the source gives them in different places.
Key:
[1] = tested on: human γ-globulin; assay: Binding to human γ-globulin (activity remaining in aqueous portion after ether extraction; TLC); settings: TLC of aqueous portion, radioactivity with a polar band
Protocol: (§1) Samples of bovine albumin (45 mg/ml, 10 ml) and human γ-globulin (6.7 mg/ml. 10 ml) were prepared in phosphate buffer and 0.15 NaCl solution (PBS). A 10 ml sample of PBS was used as control. [^125 I]-IPM (10 μCi) in 100 λ DMSO was added to each sample and incubated for 30 min at 37° C. The samples were repeatedly extracted with ethyl ether. The unbound activity as [^125 I]-IPM was extracted with ethyl ether. The activity remaining in the aqueous portion was considered to be bound with the proteins.

[2] = as above; settings: gamma-globulin in pbs; human γ-globulin 6.7 mg/ml in PBS, 30 min at 37° C., after ether extraction; read-out: activity remaining in the aqueous portion (bound with protein), γ-globulin (converted)
Protocol: as §1

[3] = tested on: platelet proteins; assay: Preliminary studies of binding with platelet proteins
[4] = Binding to bovine albumin (activity remaining in aqueous portion after ether extraction; TLC); settings: bovine albumin 45 mg/ml in PBS, 30 min at 37° C., after ether extraction; read-out: activity remaining in the aqueous portion (bound with protein), albumin (converted)
Protocol: as §1

[5] = tested on: bovine albumin; assay: as above; settings: TLC of aqueous portion, radioactivity with a polar band
Protocol: as §1

[6] = tested on: IgG; assay: Preliminary studies of binding with IgG
[7] = tested on: albumin; assay: Preliminary studies of binding with albumin
[8] = Tissue distribution of radioactivity after intravenous administration in rats; format: in vivo, female Fischer 344 rats (printed "femal Fischer 344 rats"); settings: for tissue uptake at 5 min / tissue uptake at 0.5 h / tissue uptake at 1 h: rat, iv; for tissue uptake at 5 min: 5 min after i.v. injection; for tissue uptake at 0.5 h: 30 min after i.v. injection; for tissue uptake at 1 h: 60 min after i.v. injection; for binding with the blood, tissue distribution (in words) / thyroid uptake / thyroid levels of radioactivity (in words): rats; for thyroid uptake / thyroid levels of radioactivity (in words): indicative of in vivo stability of radiolabel toward deiodination
Protocol: 4-[^125 I]iodoaniline (7.4 mCi sp. act. 700 mCi/mmol) prepared following structure described in Step 1 of Example 1 was coupled with maleic anhydride (9.5 mg) in glacial acetic acid (0.15 ml) at room temperature. The radioiodinated compound, [^125 I]3 isolated by silica gel column chromatography was refluxed with acetic anhydride
The distribution of radiactivity in tissues of femal Fischer 344 rats
(§2) after intravenous administration of [^125 I]4.^a
^a Animals had body weight range of 121-139 gm. Each animal received
3.7 ^o Ci of [^125 I]4 by tail vein injection.
The distribution of radioactivity in tissues of femal Fischer 344 rats
as §2
(75mg) and anhydrous (fused) sodium acetate (12 mg) in benzene (1.0 ml) for 3 h. The product, [^125 I]4 (3.99 mCi, 56 percent radiochemical yield based on [^125 I]3), was isolated by silica gel column chromatography. The radioactive compound [^125 I]4 was identical with an unlabeled sample of 4.

[9] = tested on: red blood cells; assay: Blood fractionation (plasma, red and white blood cells) studies; format: in vivo, rat; settings: rats injected with [^125 I]4
Text: Blood fractionation (plasma, red and white blood cells) studies indicated 88.9% of the blood activity to be associated with red blood cells.

[10] = blood, Table 1, blood, read-out: Mean percent injected dose/gm, Blood
[11] = blood, Table 2, blood, read-out: Mean percent injected dose/gm, Blood
[12] = heart, Table 1, heart, read-out: Mean percent injected dose/gm, Heart
[13] = heart, Table 2, heart, read-out: Mean percent injected dose/gm, Heart
[14] = kidneys, Table 1, kidneys, read-out: Mean percent injected dose/gm, Kidneys
[15] = kidneys, Table 2, kidneys, read-out: Mean percent injected dose/gm, Kidneys
[16] = liver, Table 1, liver, read-out: Mean percent injected dose/gm, Liver
[17] = liver, Table 2, liver, read-out: Mean percent injected dose/gm, Liver
[18] = lungs, Table 1, lungs, read-out: Mean percent injected dose/gm, Lungs
[19] = lungs, Table 2, lungs, read-out: Mean percent injected dose/gm, Lungs
[20] = thyroid, Table 1, thyroid, read-out: Mean percent injected dose/gm, Thyroid
[21] = thyroid, Table 2, thyroid, read-out: Mean percent injected dose/gm, Thyroid

binding with γ-globulin by TLC (in words) [1]: significant binding
fraction unbound at 0.5 h [2]: ~0.6
binding with platelet proteins (in words) [3]: appears to bind
fraction unbound at 0.5 h [4]: ~0.4
binding with albumin by TLC (in words) [5]: significant binding
binding with IgG (in words) [6]: appears to bind
binding with albumin (in words) [7]: appears to bind
tissue uptake at 5 min [8, 10]: 8.84 %ID/g
tissue uptake at 0.5 h [8, 10]: 8.44 %ID/g
tissue uptake at 1 h [8, 10]: 7.56 %ID/g
tissue uptake at 5 min [8, 11]: 57.6 %ID/g
tissue uptake at 0.5 h [8, 11]: 54.1 %ID/g
tissue uptake at 1 h [8, 11]: 48.6 %ID/g
tissue uptake at 5 min [8, 12]: 1.45 %ID/g
tissue uptake at 0.5 h [8, 12]: 1.81 %ID/g
tissue uptake at 1 h [8, 12]: 1.74 %ID/g
tissue uptake at 5 min [8, 13]: 0.61 %ID/g
tissue uptake at 0.5 h [8, 13]: 0.79 %ID/g
tissue uptake at 1 h [8, 13]: 0.74 %ID/g
tissue uptake at 5 min [8, 14]: 2.15 %ID/g
tissue uptake at 0.5 h [8, 14]: 2.12 %ID/g
tissue uptake at 1 h [8, 14]: 2.07 %ID/g
tissue uptake at 5 min [8, 15]: 2.17 %ID/g
tissue uptake at 0.5 h [8, 15]: 2.18 %ID/g
tissue uptake at 1 h [8, 15]: 2.21 %ID/g
tissue uptake at 5 min [8, 16]: 1.9 %ID/g
tissue uptake at 0.5 h [8, 16]: 1.73 %ID/g
tissue uptake at 1 h [8, 16]: 1.5 %ID/g
tissue uptake at 5 min [8, 17]: 10.2 %ID/g
tissue uptake at 0.5 h [8, 17]: 7.85 %ID/g
tissue uptake at 1 h [8, 17]: 7.05 %ID/g
tissue uptake at 5 min [8, 18]: 2.04 %ID/g
tissue uptake at 0.5 h [8, 18]: 2.52 %ID/g
tissue uptake at 1 h [8, 18]: 2.31 %ID/g
tissue uptake at 5 min [8, 19]: 1.76 %ID/g
tissue uptake at 0.5 h [8, 19]: 1.89 %ID/g
tissue uptake at 1 h [8, 19]: 1.74 %ID/g
tissue uptake at 5 min [8, 20]: 13.7 %ID/g
tissue uptake at 0.5 h [8, 20]: 21.7 %ID/g
tissue uptake at 1 h [8, 20]: 20.5 %ID/g
tissue uptake at 5 min [8, 21]: 0.13 %ID/g
tissue uptake at 0.5 h [8, 21]: 0.2 %ID/g
tissue uptake at 1 h [8, 21]: 0.19 %ID/g
thyroid uptake / thyroid levels of radioactivity (in words) ([8]; listed as IPM): consistently low
thyroid uptake / thyroid levels of radioactivity (in words) ([8]; listed as maleimide agent): low
binding with the blood, tissue distribution (in words) ([8]; listed as IPM): preferential binding
binding with the blood, tissue distribution (in words) ([8]; listed as maleimide agent): preferential binding with the blood
blood activity associated with red blood cells [9]: 88.9%
SMILES: O=C1C=CC(=O)N1c1ccc([125I])cc1 [[^125 I]4, N-(p-[^125 I]iodophenyl)maleimide]
binding with the blood, tissue distribution (in words) [8]: high levels of radioactivity were associated with the blood

Source: US4735792A, “Radioiodinated maleimides and use as agents for radiolabeling antibodies” (The United States of America as represented by the United …, priority 1987, dated 1988)
